Patent EP0121764B1, “Polypeptides” (F. HOFFMANN-LA ROCHE AG, priority 1983, dated 1990)
No end group written: not given here.

Tests used:
[1] = test system: in Gewebekultur gezüchtete Zellen von Rattenhypophysen; experiment: Growth hormone release from cultured rat pituitary cells (RIA for rat growth hormone); format: cell-based, Sprague-Dawley-Ratten
Source text: Die biologische Aktivität von (leu^27)-GRF(1―44)-OH wurde mit derjenigen von natürlichem GRF(1―44)-NH2 verglichen, das aus einem Pankreastumor eines an Akromegalie leidenden Patienten isoliert wurde (Salk Institute Standard hp-GRF-NH2(NL-A-10)). Der Test auf biologische Aktivität, bei dem die Fähigkeit gemessen wird, in Gewebekultur gezüchtete Zellen von Rattenhypophysen zur Wachstumshormonproduktion zu stimulieren, wurde in der folgenden Weise durchgeführt:
Die Hypophysen-Vorderlappen von 30-40 männlichen Sprague-Dawley-Ratten (175 g) wurden dreimal mit sterilem Hepes-Puffer (pH 7,5) gewaschen und bei 37°C in 20-30 ml Hepes-Puffer (0,025 m, pH 7,35), enthaltend Kollagenase (4 mg/ml) und Dispase (2 mg/ml), dispergiert. Nach 100-110 minütiger Behandlung mit einem Vortex-Mixer und Behandlung mit Pasteur-Pipette, wurden die dispergierten Zellen durch Zentrifugieren (4 Minuten, 150xg) abgetrennt und während 10 Minuten in Hepes-Puffer, enthaltend 8 pg/ml Neuraminidase und 200 pg/ml Ethylendiamintetraessigsäure-dinatriumsalz, pH 7,35, resuspendiert. Die Zellen wurden zweimal mit folgendem Medium gewaschen: F-12/DMEM/BGjb (6:3:1) (Gibco: 430―1700/430―1600/320―2591) mit 2 g/I Rinderserumalbumin (BSA), 2x38 g/I Hepes und 50 mg/I Gentamycin und auf Mikrotiterplatten aufgebracht (1,5x10^5 Zellen/ml). Dem Medium in den einzelnen Löchern wurde entweder (leu^27)-GRF(1―44)-OH oder natürliches GRF(1-44)-NH2 in solchen Mengen zugesetzt, dass sich folgende Konzentrationen ergaben: 3.1, 6.3, 12.5, 25.0, 50.0, 100.0 und 200.0 fMol/ml. Die Kontrollen wurden nicht supplementiert. Das Aufbringen mit diesem Medium erfolgte unter Zusatz von 2% fötalem Kälberserum, um eine schnelle Fixierung der Zellen zu erreichen. Am vierten Tag wurden die Zellen zweimal mit dem oben definierten Medium (ohne Kälberserum) gewaschen. Schliesslich wurden jedem Loch 900 µl des Mediums sowie 100 µl Medium mit der Testsubstanz zugesetzt (jeweils dreifach). Nach dreistündiger Inkubation wurde der Überstand gesammelt und soweit verdünnt, dass Radioimmunoassays (RIAs) auf Ratten-Wachstumshormon durchgeführt werden konnten. […]

[2] = synthetically prepared peptides; factor relative to GRF(1-40)-OH; cited from earlier work

Substance	relative Aktivität gegenüber dem Standard des Salk Instituts ([1]; computer analysis of the table data, standard hp-GRF-NH2(NL-A-10) = natural GRF(1-44)-NH2, 3.1-200.0 fMol/ml, 3 h incubation)	Faktor, um den die ausgeschüttete Menge an Wachstumshormon grösser ist, bezogen auf (leu^27)-GRF-OH ([1]; in vitro)	Aktivität verglichen mit GRF(1-44)-NH2 ([1]; stimulation of growth hormone production, 3.1-200.0 fMol/ml, 3 h incubation)	Aktivitäten ähnlich wie GRF(1-40)-OH (innerhalb eines Faktors) [2]
(leu^27)-GRF(1―44)-OH (YADAIFTNSYRKVLGQLSARKLLQDILSRQQGESNQERGARARL-OH; UniProt P01286 32-75, looked up, variant M27L) [(Leu^27)-GRF(1-44)-OH]	1,063	≥ 10	gleich oder leicht höher	–
GRF(1-29)-NH2: synthetic GRF fragment, first 29 amino acids, amidated (Rivier et al.) (YADAIFTNSYRKVLGQLSARKLLQDIMSR-NH2; UniProt P01286 32-60, looked up, fragment)	–	–	–	≤ 2
GRF(1-32)-NH2: synthetic GRF fragment, first 32 amino acids, amidated (Rivier et al.) (YADAIFTNSYRKVLGQLSARKLLQDIMSRQQG-NH2; UniProt P01286 32-63, looked up, fragment)	–	–	–	≤ 2
GRF(1-39)-NH2: synthetic GRF fragment, first 39 amino acids, amidated (Rivier et al.) (YADAIFTNSYRKVLGQLSARKLLQDIMSRQQGESNQERG-NH2; UniProt P01286 32-70, looked up, fragment)	–	–	–	≤ 2
GRF(1-40)-NH2: synthetic GRF fragment, first 40 amino acids, amidated (Rivier et al.) (YADAIFTNSYRKVLGQLSARKLLQDIMSRQQGESNQERGA-NH2; UniProt P01286 32-71, looked up, fragment)	–	–	–	≤ 2
